This note sets out measurements from US20110306922A1, “LIGHT-EMITTING DEVICES FOR PHOTOTHERAPY” (priority 2010, published 2011).

For experiment [1], the system named is CHO-K1 (Chinese Hamster Ovarian Cancer, ATCC, CRL-2243) cell line.
Experiment [2] shares this test system. Kind of experiment: cells. The settings on record: Cricetulus griseus, CHO-K1, light or radiation study, read-out: cells destroyed (cell viability, light dosimetry).
Experiment [3] concerns age-related macular degeneration. Kind of experiment: Intravenous verteporphin plus red OLED illumination of the retina, age-related macular degeneration. The experiment is classed as in vivo, person. The settings on record: about 6 mg/m^2 i.v.; about 20 mW/cm^2 for about 42 minutes, about 50 J/cm. On the procedure:
Verteporphin is intravenously injected, over a period of about 10 minutes at a rate of about 3 mL/min, to a person suffering from age-related macular degeneration. The verteporphin (7.5 mL of 2 mg/mL reconstituted solution, available as Visudyne® from Novartis) is diluted with 5% dextrose to a volume of 30 mL using a sufficient quantity of the reconstituted verteporphin so that the total dose injected is about 6 mg/m^2 of body surface.
The treatment is repeated as needed.

A further experiment deals with pathological myopia. The experiment is described as follows: Intravenous verteporphin plus red OLED illumination of the retina, pathological myopia. It counts as in vivo, person. The settings on record: about 6 mg/m^2 i.v.; about 20 mW/cm^2 for about 42 minutes, about 50 J/cm2. Here is the method:
Verteporphin is intravenously injected, over a period of about 10 minute at a rate of about 3 mL/min, to a person suffering from pathological myopia. The verteporphin (7.5 mL of 2 mg/mL reconstituted solution, available as Visudyne® from Novartis) is diluted with 5% dextrose to a volume of 30 mL using a sufficient quantity of the reconstituted verteporphin so that the total dose injected is about 6 mg/m^2 of body surface.
After treatment, the patient's vision is anticipated to be stabilized. The treatment is repeated as needed.

For experiment [4], the system named is presumed ocular histoplasmosis. On the set-up: species or system person. The settings on record: in vivo, iv.

Molecules are shown by their SMILES.

Turning to `NCC(=O)CCC(=O)O` [ALA, 5-aminolevulinic acid], the “generation of PpIX (fluorescence emission at 635 nm)” value in experiment [1] (ALA 0.5 mM, 1 mM, 2 mM, incubated about 16 hrs at 37° C.) is listed as “confirmed”. Further, the “optical microscope images of the cells: healthy leafy type cells transform to droplet type” value in experiment [1] (after 25 J/cm^2 red light (630 nm) irradiation from OLED) was “significant cell death”. In addition, in experiment [2], the cytotoxicity at 1000 µM is around 90%.

As to `C=Cc1c(C)c2cc3nc(cc4[nH]c(cc5nc(cc1[nH]2)C(C)=C5CCC(=O)O)c(CCC(=O)OC)c4C)[C@@]1(C)C3=CC=C(C(=O)OC)[C@H]1C(=O)OC` [Verteporphin], the “patient's vision” value (in experiment [3]; in the experiment with pathological myopia; in experiment [4]) was “stabilized” throughout.
